One compound from patent US9844656B2, “Localization of agents at a target site with a composition and an energy source” (The Regents of the University of California, priority 2010, dated 2017) can be followed below.

The structures appear in SMILES notation.

What is called IC50 is the concentration needed to halve the response being measured.

In one data set the test system is NDL cells. The data set is described as follows: Intracellular trafficking and subcellular localization of doxorubicin. The class given is cell-based. The following applies: post incubation at 37° C.
A short description of data set [1]: Ex vivo imaging of doxorubicin accumulation in mouse heart. The following applies: 40 min post administration. The protocol: FIG. 15. Ex vivo imaging of doxorubicin accumulation in mouse heart after liposomes were injected into the tail vein and allowed to circulate. Heart was removed after euthanasia to assess fluorescence. a) Doxorubicin fluorescence in hearts of mice injected with liposomal doxorubicin in lyso-temperature sensitive liposomes when Dox was loaded with ammonium sulfate method (ASDox-LTSLs) or loaded in liposomes containing 100 mM copper/270 mM TEA (CuDox-LTSLs), and loaded in temperature sensitive liposomes with 25% cholesterol containing 100 mM copper/270 mM TEA (CuDox-TSLs+25% chol) compared to those injected with free Dox. Animals were euthanized 40 min post administration of free or liposomal doxorubicin. Animals were perfused with saline and hearts were dissected prior to Maestro imaging. Statistical analyses were performed using one-way ANOVA followed by a Tukey Post Hoc test. *p<0.05, **p<0.01. Inset images of heart acquired by Maestro imaging system (white indicates higher doxorubicin fluorescence intensity).

Data set [2] has as its system MET-1^fvb2 mammary carcinoma cells. The data set is described as follows: In vitro viability assay (MTT). The class given is cell-based, mouse. The following applies: Met-1 cell line, 72 hours, read-out: IC50 (cytotoxicity). The protocol: MET-1^fvb2 mammary carcinoma cells were obtained from the Alexander Borowsky Laboratory (UC Davis). MET-1 cells were plated at 2000 cells in 50 μl media per well in 96-well tissue culture plates in high glucose Dulbecco's Modified Eagle's Medium (DMEM, Invitrogen, Carlsbad, Calif.) supplemented with 1% PenStrep and 10% FBS. Cells were given six hours to attach to the plate surface. Treatments were added to each well in 100 μl media and experiments were performed in triplicate. Doxil®, a commercial product of ALZA corporation and manufactured by Centocor Ortho Biotech, was purchased from Cardinal Health Care (Dublin, Ohio) and the in vitro viability was compared with the liposomal copper-doxorubicin.
Plates were incubated for 72 hours at 37° C. in 5% CO2. 3-(4,5-dimethylthiazol-2-yl)-2,5-diphenyltetrazolium bromide (MTT, Invitrogen, Carlsbad, Calif.) reagent was added to media at a concentration of 0.5 mg/ml, and cells were incubated 2 hours at 37° C. in 5% CO2. […] Absorbance was measured using Tecan Infinite® M1000 Microplate Reader (San Jose, Calif.) at wavelength 570 nm (reference of 670 nm). Best-fit curves and IC50 values were calculated for concentration-response curves using GraphPad Prism software (GraphPad Inc., La Jolla, Calif.). Average IC50 values calculated from a minimum of three replicate experiments for each preparation.

The conditions of data set [3]: mouse, in vivo.
Method: Images of circulating doxorubicin were acquired using the Maestro™ hyperspectral imaging system (Cambridge Research & Instrumentation, Inc., Woburn, Mass.). Animals were then euthanized and perfused with saline at 24 or 48 hours post systemic administration of the drug and the accumulation of doxorubicin or copper in tissues and organs were imaged and quantified ex vivo.
The Maestro™ in vivo Imaging System (Cambridge Research & Instrumentation, Inc., Woburn, Mass.) was utilized. The system is consisted of a light-tight and temperature-controlled imaging chamber, a tunable multi-spectral camera system, and a computer with pre-installed software which allows accurate spectral unmixing for increased spectral contrast and improved data quantification. Each mouse was placed in the imaging chamber at 37° C., systemically injected with either free or liposomal doxorubicin, and imaged using the blue Maestro filter set (500:10:720) with the exposure time of 1000 ms. The fluorescence signals were then unmixed from the auto-fluorescence in the image cube. A region of interest (ROI) was manually selected over the signal intensity. The area of the ROI was kept constant and the intensity was recorded as average signal (photons/s/cm^2) within a ROI. […]

Regarding `COc1cccc2c1C(=O)c1c(O)c3c(c(O)c1C2=O)C[C@@](O)(C(=O)CO)C[C@@H]3O[C@H]1C[C@H](N)[C@H](O)[C@H](C)O1.Cl` [free doxorubicin, Doxorubicin hydrochloride], in the data set with NDL cells, the “time at which the nucleus showed doxorubicin fluorescence” value was determined as 15 min. In addition, in data set [1], the “increase in cardiac accumulation of doxorubicin compared to liposomal copper-doxorubicin in temperature-sensitive liposomes” value is reported as 4 fold. The IC50 in data set [2] came out at 20 ± 10 nM. Besides, the skin fluorescence trend entry in data set [3] was “decreasing with time”.
